Assay results published in PMC11864979, “First-in-class ultralong-target-residence-time p38α inhibitors as a mitosis-targeted therapy for colorectal cancer” (Nature Cancer, 2025).
Like-named read-outs stand apart in the source and are kept apart here.

Key:
Experiment in all cases: selectivity profiling in a panel of 340 wild-type kinases (Reaction Biology Europe)
Type in all cases: binding
[1] = biological target: T1, 340 wild-type kinases (Homo sapiens, UniProt O00418)
T1 construct: purchased Reaction Biology Europe
T1 sequence (O00418 1-725): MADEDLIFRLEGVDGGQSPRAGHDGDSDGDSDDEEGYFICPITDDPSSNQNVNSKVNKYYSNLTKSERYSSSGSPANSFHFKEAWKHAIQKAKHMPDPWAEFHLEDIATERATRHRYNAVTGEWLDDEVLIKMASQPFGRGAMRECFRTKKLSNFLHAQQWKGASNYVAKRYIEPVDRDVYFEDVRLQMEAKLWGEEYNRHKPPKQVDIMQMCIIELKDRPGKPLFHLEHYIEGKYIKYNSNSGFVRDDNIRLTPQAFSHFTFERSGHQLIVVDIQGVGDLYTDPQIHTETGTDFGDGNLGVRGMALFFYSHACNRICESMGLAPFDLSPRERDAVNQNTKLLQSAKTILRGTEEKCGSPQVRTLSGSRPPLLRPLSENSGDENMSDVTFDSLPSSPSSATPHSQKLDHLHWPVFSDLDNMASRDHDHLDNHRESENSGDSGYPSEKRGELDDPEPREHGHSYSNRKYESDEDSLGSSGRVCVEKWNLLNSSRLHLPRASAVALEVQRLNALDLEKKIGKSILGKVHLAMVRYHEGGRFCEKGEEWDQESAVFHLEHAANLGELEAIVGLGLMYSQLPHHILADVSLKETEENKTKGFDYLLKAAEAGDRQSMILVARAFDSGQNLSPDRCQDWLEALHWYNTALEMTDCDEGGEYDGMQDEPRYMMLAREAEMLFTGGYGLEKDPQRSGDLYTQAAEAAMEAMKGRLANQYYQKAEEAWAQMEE

[2] = biological target: T2, 340 wild-type kinases (Homo sapiens, UniProt O14757)
T2 construct: purchased Reaction Biology Europe
T2 sequence (O14757 1-476): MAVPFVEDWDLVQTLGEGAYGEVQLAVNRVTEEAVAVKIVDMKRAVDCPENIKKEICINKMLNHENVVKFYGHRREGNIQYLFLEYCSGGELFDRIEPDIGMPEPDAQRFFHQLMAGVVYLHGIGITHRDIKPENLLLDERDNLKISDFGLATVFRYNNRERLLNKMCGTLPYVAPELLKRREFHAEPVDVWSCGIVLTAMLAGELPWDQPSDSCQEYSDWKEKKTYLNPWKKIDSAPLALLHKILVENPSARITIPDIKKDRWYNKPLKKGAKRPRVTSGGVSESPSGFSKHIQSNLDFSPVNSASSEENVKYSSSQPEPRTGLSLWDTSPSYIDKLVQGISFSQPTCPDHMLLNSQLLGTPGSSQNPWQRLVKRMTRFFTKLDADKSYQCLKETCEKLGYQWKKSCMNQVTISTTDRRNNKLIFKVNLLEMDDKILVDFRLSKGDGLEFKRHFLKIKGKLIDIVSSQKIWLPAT

[3] = biological target: T3, 340 wild-type kinases (Homo sapiens, UniProt P06241)
T3 construct: purchased Reaction Biology Europe

[4] = biological target: T4, 340 wild-type kinases (Homo sapiens, UniProt P24723)
T4 construct: purchased Reaction Biology Europe

[5] = biological target: T5, 340 wild-type kinases (Homo sapiens, UniProt Q8IYT8)
T5 construct: purchased Reaction Biology Europe
T5 sequence (Q8IYT8 1-1036): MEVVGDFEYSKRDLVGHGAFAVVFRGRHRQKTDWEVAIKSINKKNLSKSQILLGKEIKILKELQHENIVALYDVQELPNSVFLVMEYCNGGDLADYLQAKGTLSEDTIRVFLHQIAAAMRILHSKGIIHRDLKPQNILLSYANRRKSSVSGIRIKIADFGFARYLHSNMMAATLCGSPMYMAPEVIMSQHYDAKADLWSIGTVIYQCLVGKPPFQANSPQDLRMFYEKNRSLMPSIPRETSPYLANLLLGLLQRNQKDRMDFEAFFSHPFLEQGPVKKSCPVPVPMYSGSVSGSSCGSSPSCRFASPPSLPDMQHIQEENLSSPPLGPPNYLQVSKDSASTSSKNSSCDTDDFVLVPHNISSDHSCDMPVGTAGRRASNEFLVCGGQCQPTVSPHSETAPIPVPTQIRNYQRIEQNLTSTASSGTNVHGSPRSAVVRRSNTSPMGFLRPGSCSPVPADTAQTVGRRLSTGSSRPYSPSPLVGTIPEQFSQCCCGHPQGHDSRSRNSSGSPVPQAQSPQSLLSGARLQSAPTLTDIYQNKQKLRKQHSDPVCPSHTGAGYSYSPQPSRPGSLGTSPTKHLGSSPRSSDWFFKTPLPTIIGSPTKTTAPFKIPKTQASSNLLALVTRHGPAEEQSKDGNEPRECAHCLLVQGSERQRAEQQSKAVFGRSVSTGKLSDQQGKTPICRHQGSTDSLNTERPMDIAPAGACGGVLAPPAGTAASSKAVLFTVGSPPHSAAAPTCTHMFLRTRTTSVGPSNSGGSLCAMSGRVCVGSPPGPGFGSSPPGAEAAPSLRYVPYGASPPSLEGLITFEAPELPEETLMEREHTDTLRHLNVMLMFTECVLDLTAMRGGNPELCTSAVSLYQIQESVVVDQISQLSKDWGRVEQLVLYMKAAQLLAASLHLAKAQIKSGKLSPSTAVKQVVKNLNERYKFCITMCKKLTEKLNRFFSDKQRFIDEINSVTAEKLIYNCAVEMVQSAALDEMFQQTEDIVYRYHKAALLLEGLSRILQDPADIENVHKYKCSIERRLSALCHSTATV

T4 sequence (P24723 whole entry): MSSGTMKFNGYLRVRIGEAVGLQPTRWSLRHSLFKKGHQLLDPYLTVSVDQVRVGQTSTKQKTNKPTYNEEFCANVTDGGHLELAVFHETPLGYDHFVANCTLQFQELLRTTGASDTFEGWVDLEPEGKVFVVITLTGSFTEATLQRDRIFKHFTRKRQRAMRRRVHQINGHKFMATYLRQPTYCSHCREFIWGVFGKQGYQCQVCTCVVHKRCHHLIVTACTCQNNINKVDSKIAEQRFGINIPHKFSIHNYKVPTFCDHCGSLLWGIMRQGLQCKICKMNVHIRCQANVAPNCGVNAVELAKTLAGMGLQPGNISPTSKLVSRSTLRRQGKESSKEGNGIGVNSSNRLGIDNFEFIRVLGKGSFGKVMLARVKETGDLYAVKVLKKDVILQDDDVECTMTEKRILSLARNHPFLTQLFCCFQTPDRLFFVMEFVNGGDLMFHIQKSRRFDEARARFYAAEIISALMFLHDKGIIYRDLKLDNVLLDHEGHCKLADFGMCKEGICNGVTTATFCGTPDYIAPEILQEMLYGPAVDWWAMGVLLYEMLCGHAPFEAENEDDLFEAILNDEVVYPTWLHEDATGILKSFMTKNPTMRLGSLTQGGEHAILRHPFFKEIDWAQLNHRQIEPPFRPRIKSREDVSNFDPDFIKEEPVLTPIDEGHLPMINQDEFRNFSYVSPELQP
T3 sequence (P06241 whole entry): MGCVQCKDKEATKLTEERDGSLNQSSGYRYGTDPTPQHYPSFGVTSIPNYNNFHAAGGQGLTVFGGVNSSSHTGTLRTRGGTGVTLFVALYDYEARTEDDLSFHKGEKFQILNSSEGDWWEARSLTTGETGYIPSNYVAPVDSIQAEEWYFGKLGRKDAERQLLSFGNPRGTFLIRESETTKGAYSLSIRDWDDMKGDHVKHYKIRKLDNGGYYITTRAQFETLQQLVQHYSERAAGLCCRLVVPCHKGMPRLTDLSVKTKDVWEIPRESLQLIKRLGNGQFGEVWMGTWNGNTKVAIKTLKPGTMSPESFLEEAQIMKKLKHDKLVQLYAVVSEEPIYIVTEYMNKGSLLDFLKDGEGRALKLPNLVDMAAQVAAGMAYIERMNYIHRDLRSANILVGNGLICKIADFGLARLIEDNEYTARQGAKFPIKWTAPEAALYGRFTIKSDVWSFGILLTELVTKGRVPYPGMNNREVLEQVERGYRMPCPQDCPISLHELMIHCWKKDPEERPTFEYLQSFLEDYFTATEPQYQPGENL

With `CNC(=O)c1ccc2c(c1)C(=O)c1ccc(Nc3ccc(F)c(NC(=O)C4CC4)c3)cc1CC2` [Compound 2015] the remaining activity at 0.2 µM ([1]; 0.2 µM 2015, read-out: EEF2K residual activity) was 106%, the remaining activity at 1 µM ([1]; 1 µM 2015, read-out: EEF2K residual activity) was 98.4% and the remaining activity at 0.2 µM ([1]; EEF2K, 0.2 µM, read-out: residual activity) was 106%. For the same compound, the remaining activity at 1 µM ([1]; EEF2K, 1 µM, read-out: residual activity) was 98.4%, the remaining activity at 0.2 µM ([2]; 0.2 µM 2015, read-out: CHK1 residual activity) was 88.2% and the remaining activity at 1 µM ([2]; 1 µM 2015, read-out: CHK1 residual activity) was 87.9%. It also gave a remaining activity at 0.2 µM ([2]; CHK1, 0.2 µM, read-out: residual activity) of 88.2%, a remaining activity at 1 µM ([2]; CHK1, 1 µM, read-out: residual activity) of 87.8% and a remaining activity at 0.2 µM ([3]; 0.2 µM 2015, read-out: FYN residual activity) of 119%. It also gave a remaining activity at 1 µM ([3]; 1 µM 2015, read-out: FYN residual activity) of 101%, a remaining activity at 0.2 µM ([3]; FYN, 0.2 µM, read-out: residual activity) of 119% and a remaining activity at 1 µM ([3]; FYN, 1 µM, read-out: residual activity) of 101%. It also gave a remaining activity at 0.2 µM ([4]; 0.2 µM 2015, read-out: PKCeta residual activity) of 80.3%, a remaining activity at 1 µM ([4]; 1 µM 2015, read-out: PKCeta residual activity) of 90.1% and a remaining activity at 0.2 µM ([4]; PKCeta, 0.2 µM, read-out: residual activity) of 80.3%. It also gave a remaining activity at 1 µM ([4]; PKCeta, 1 µM, read-out: residual activity) of 90.1%, a remaining activity at 0.2 µM ([5]; 0.2 µM 2015, read-out: ULK2 residual activity) of 105% and a remaining activity at 1 µM ([5]; 1 µM 2015, read-out: ULK2 residual activity) of 87.8%. It also gave a remaining activity at 0.2 µM ([5]; ULK2, 0.2 µM, read-out: residual activity) of 105% and a remaining activity at 1 µM ([5]; ULK2, 1 µM, read-out: residual activity) of 87.8%.
